Results as given in US20210283117A1, “PROPHYLACTIC OR THERAPEUTIC AGENT FOR PROSTATE CANCER” (KEIO UNIVERSITY, priority 2018, published 2021).

Assays:
[1] = system: DU145 cell lines; experiment: Antitumor effect on CRPC model mice, tumor volume; format: in vivo
Description: 1×10^6 metastatic CRPC cell lines (DU145 cell lines) were subcutaneously inoculated to castrated male nude mice (BALB/C) to prepare subcutaneous tumor model mice. When the tumor size reached about 100 mm^3, the subcutaneous tumor model mice (CRPC model mice) were divided into three groups (control group, cabazitaxel administration group and cloperastine administration group). To the cloperastine administration group (n=5), a cloperastine hydrochloride (manufactured by Sigma-Aldrich Co. LLC) was orally administered daily at a dose of 12.5 mg/kg (body weight) per day in terms of cloperastine (“cloperastine administration group” in FIG. 7A). To the cabazitaxel administration group (n=5), cabazitaxel (manufactured by Carbosynth Limited) was intraperitoneally administered in a single dose of 10 mg/kg (body weight) (“cabazitaxel administration group” in FIG. 7A). On the other hand, any of the cloperastine hydrochloride and cabazitaxel was not administered to the control group (n=5) (control group in FIG. 7A).
The 1×10^6 DU145CR cell lines established in Example 5 were subcutaneously inoculated to castrated male nude mice (BALB/C) to prepare subcutaneous tumor model mice (cabazitaxel-resistant CRPC mice). When the tumor size reached about 100 mm^3, the subcutaneous tumor model mice were divided into three groups (control group, cabazitaxel administration group and cloperastine administration group). To the cloperastine administration group (n=5), a cloperastine hydrochloride (manufactured by Sigma-Aldrich Co. LLC) was orally administered daily at a dose of 12.5 mg/kg (body weight) per day in terms of cloperastine (“cloperastine administration group” in FIG. 7B). […] For the CRPC model mice and the cabazitaxel-resistant CRPC mice, tumor volumes were measured and an average value was calculated immediately after oral administration of the cloperastine hydrochloride (day 0) and 4 days, 8 days, 12 days and 16 days after the oral administration.

[2] = system: DU145CR cell lines; experiment: In vivo analysis of cabazitaxel resistance, subcutaneous tumor model mice (DU145CR vs DU145); conditions: cabazitaxel 10 mg/kg single intraperitoneal dose; 12 days after administration
Description: The 1×10^6 established DU145CR cell lines and 1×10^6 DU145 cell lines were subcutaneously inoculated to castrated male nude mice (BALB/C), respectively, to prepare subcutaneous tumor model mice (DU145CR mice and DU145 mice). When the tumor size reached about 200 mm^3, the subcutaneous tumor model mice were divided into four groups (DU145 mouse group, cabazitaxel administration DU145 mouse group, DU145CR mouse group and cabazitaxel administration DU145CR mouse group), and to the cabazitaxel administration DU145 mouse group and the cabazitaxel administration DU145CR mouse group (n=5 for each group), cabazitaxel (manufactured by Carbosynth Limited) was intraperitoneally administered in a single dose of 10 mg/kg (body weight). Cabazitaxel was not administered to the DU145 mouse group and the DU145CR mouse group (n=5 for each group). Immediately after oral administration (day 0) and 4 days, 8 days and 12 days after the oral administration, tumor volumes were measured and an average value was calculated.

[3] = system: DU145CR cell lines; experiment: Antitumor effect by use in combination with cabazitaxel, cabazitaxel-resistant CRPC mice, tumor volume; format: in vivo
Description: The 5×10^6 DU145CR cell lines established in Example 5 were subcutaneously inoculated to castrated male nude mice (BALB/C) to prepare subcutaneous tumor model mice (cabazitaxel-resistant CRPC mice). When the tumor size reached about 100 mm^3, the subcutaneous tumor model mice were divided into four groups (control group, cabazitaxel administration group, cloperastine administration group and cloperastine+cabazitaxel administration group). To the cabazitaxel administration group (n=5), cabazitaxel (manufactured by Carbosynth Limited) was intraperitoneally administered in a single dose of 10 mg/kg (body weight). To the cloperastine administration group (n=5), a cloperastine hydrochloride (manufactured by Sigma-Aldrich Co. LLC) was orally administered daily at a dose of 12.5 mg/kg (body weight) per day in terms of cloperastine. To the cloperastine+cabazitaxel administration group (n=5), the cloperastine hydrochloride was orally administered daily at a dose of 12.5 mg/kg (body weight) per day in terms of cloperastine, and cabazitaxel (manufactured by Carbosynth Limited) was intraperitoneally administered in a single dose of 10 mg/kg (body weight). […] For the cabazitaxel-resistant CRPC mice, tumor volumes were measured and an average value was calculated immediately after oral administration (day 0) and 4 days, 8 days and 12 days after the oral administration.

[4] = system: DU145CR cell lines; experiment: In vitro analysis of cabazitaxel resistance, number of living cells (WST-1); format: cell-based; conditions: 24 hours
Experimental: DU145CR cell lines were established by culturing DU145 cell lines in the presence of 0.2 nM cabazitaxel (manufactured by Carbosynth Limited) for about 2 years while gradually increasing the cabazitaxel concentration to 3 nM.

[5] = system: DU145 cell lines; experiment: as above; format: cell-based; conditions: Homo sapiens, DU-145, 24 hours
[6] = system: DU145CR cell lines; experiment: Antitumor effect on cabazitaxel-resistant CRPC mice, tumor volume; format: in vivo
Description: The 1×10^6 DU145CR cell lines established in Example 5 were subcutaneously inoculated to castrated male nude mice (BALB/C) to prepare subcutaneous tumor model mice (cabazitaxel-resistant CRPC mice). When the tumor size reached about 100 mm^3, the subcutaneous tumor model mice were divided into three groups (control group, cabazitaxel administration group and cloperastine administration group). To the cloperastine administration group (n=5), a cloperastine hydrochloride (manufactured by Sigma-Aldrich Co. LLC) was orally administered daily at a dose of 12.5 mg/kg (body weight) per day in terms of cloperastine (“cloperastine administration group” in FIG. 7B). To the cabazitaxel administration group (n=5), cabazitaxel (manufactured by Carbosynth Limited) was intraperitoneally administered in a single dose of 10 mg/kg (body weight) (“cabazitaxel administration group” in FIG. 7B). On the other hand, any of the cloperastine hydrochloride and cabazitaxel was not administered to the control group (n=5) (“control group” in FIG. 7B). For the CRPC model mice and the cabazitaxel-resistant CRPC mice, tumor volumes were measured and an average value was calculated immediately after oral administration of the cloperastine hydrochloride (day 0) and 4 days, 8 days, 12 days and 16 days after the oral administration.

[7] = system: DU145CR cell lines; experiment: Cell growth suppressive effect on cabazitaxel-resistant prostate cancer cell lines (WST-1), Example 7; format: cell-based; conditions: cloperastine 0.1, 1, 10 μM, vs culture without cloperastine
Experimental: (§1) DU145 cell lines and PC3 cell lines (these cell lines were obtained from ATCC [American Type Culture Collection]) were cultured on a 96-well plate for 24 hours. […] As a control, an experiment was also conducted in which DU145 cell lines and PC3 cell lines were cultured in a culture solution free of a cloperastine hydrochloride.
(§2) For confirming that the cloperastine species has a cell growth suppressive effect on enzalutamide-resistant prostate cancer and cabazitaxel-resistant prostate cancer, enzalutamide-resistant prostate cancer cell lines (C4-2AT6 cell lines) and cabazitaxel-resistant prostate cancer cell lines (DU145CR cell lines) were used to analyze the cell growth property in the presence of cloperastine species in accordance with the method described in Example 2.

[8] = system: DU145 cell lines; experiment: Ki67 immunohistological staining; format: cell-based; conditions: 10 μM, 24 hours, vs culture without cloperastine
Experimental: (§3) For confirming that the cloperastine species has a cell growth suppressive effect and an apoptosis inducing effect on CRPC and cabazitaxel-resistant CRPC, metastatic CRPC cell lines (DU145 cell lines and PC3 cell lines) were cultured in the presence of the cloperastine species, and analysis was performed by an immunohistological staining method using an antibody to a cell growth marker (Ki67), and a TUNEL (TdT-mediateddUTPnickendlabeling) method.
(§4) DU145 cell lines and DU145CR cell lines were cultured on 96-well plates, respectively, for 24 hours, and to a culture solution, a cloperastine hydrochloride (manufactured by Sigma-Aldrich Co. LLC) was added to 10 μM. The cell lines were further cultured for 24 hours, and the cells were then fixed with 4% paraformaldehyde. The fixed cells were subjected to blocking treatment with a 1% BSA (bovine serum albumin) solution, and primary antibody reaction treatment with a Ki67 antibody (manufactured by Dako Company) was performed overnight at 4° C. […] The immunohistological-stained cell sample was observed under a phase-contrast microscope (see FIG. 8A), and the ratio of Ki67-positive cells was calculated. […] The cell sample stained by the TUNEL method was observed under a phase-contrast microscope (see FIG. 9A), and the ratio of TUNEL-positive cells (cells undergoing apoptosis) was calculated.

[9] = system: DU145CR cell lines; experiment: Ki67 immunohistological staining; format: cell-based; conditions: 10 μM, 24 hours, vs culture without cloperastine
Experimental: as §3, §4

[10] = system: DU145 cell lines; experiment: TUNEL method (apoptosis); format: cell-based; conditions: 10 μM, 24 hours, vs culture without cloperastine
Experimental: as §3, §4

[11] = system: DU145CR cell lines; experiment: TUNEL method (apoptosis); format: cell-based; conditions: 10 μM, 24 hours, vs culture without cloperastine
Experimental: as §3, §4

[12] = system: normal cells; experiment: Impact on growth of normal cells; format: cell-based; conditions: 1 μM
[13] = system: DU145 cell lines; experiment: Cell growth suppressive effect, number of living cells (Premix WST-1), Example 2; format: cell-based; conditions: cloperastine 0.1, 1, 10 μM, 24 hours, vs culture without cloperastine
Experimental: (§5) For confirming that the cloperastine species has a cell growth suppressive effect on metastatic CRPC, metastatic CRPC cell lines (DU145 cell lines and PC3 cell lines) were cultured in the presence of the cloperastine species, and the cell growth property was analyzed.
as §1

[14] = system: PC3 cell lines; experiment: as above; format: cell-based; conditions: cloperastine 0.1, 1, 10 μM, 24 hours, vs culture without cloperastine
Experimental: as §5, §1

[15] = system: DU145 cell lines; experiment: Invasion assay, xCELLigence, Matrigel basement membrane matrix; format: cell-based; conditions: 1 μM cloperastine hydrochloride, 0 to 48 hours, vs control group
Experimental: For confirming the anti-prostate cancer effect of the cloperastine species, DU145 cell lines were cultured in the presence of the cloperastine species, and the invasiveness of the cell lines was analyzed (invasion assay).
To a culture solution added to each well of Real-Time Cell Analyzer xCELLigence (manufactured by ACEA Biosciences Inc.), a cloperastine hydrochloride (manufactured by Sigma-Aldrich Co. LLC) was added to 1 μM, and 4.0×10^4 DU145 cell lines were added. The cell lines were then cultured, and the number of cells passing through a Matrigel basement membrane matrix (manufactured by Corning Incorporated) was measured over time (0 to 48 hours) (cloperastine treatment group). As a control for comparison, DU145 cell lines were cultured in a culture solution free of a cloperastine hydrochloride, and the same experiment was conducted (control group).

[16] = system: C4-2AT6 cell lines; experiment: Cell growth suppressive effect on enzalutamide-resistant prostate cancer cell lines (WST-1), Example 7; format: cell-based; conditions: cloperastine 0.1, 1, 10 μM, vs culture without cloperastine
Experimental: as §1, §2

[17] = system: DU145 cell lines; experiment: EMT-related gene mRNA expression, quantitative PCR; format: cell-based; conditions: 10 μM cloperastine, 24 hours, vs control group
Experimental: (§6) For confirming that the cloperastine species has a suppressive effect on EMT in metastatic CRPC cells, metastatic CRPC cell lines (DU145 cell lines and PC3 cell lines) were cultured in the presence of the cloperastine species, and the gene expression profiles of EMT-related factors were analyzed.
(§7) DU145 cell lines and PC3 cell lines were cultured for 24 hours in the presence of 10 μM cloperastine or without cloperastine (cloperastine treatment group and control group, respectively), and mRNA was then extracted with “RNeasy Mini kit” (manufactured by QIAGEN Company). From the extracted mRNA, cDNA was synthesized with “PrimeScript RT reagent Kit” (manufactured by Takara Bio Inc.). For analyzing the mRNA expression levels of genes encoding six kinds of factors (E-cadherin, vimentin, “Zinc finger protein SNAI1”, “Zinc finger protein SNAI2”, “Zinc finger E-box-binding homeobox 1” and “Zinc finger E-box-binding homeobox 2”) (CDH1 gene, VIM gene, SNAI1 gene, SNAI2 gene, ZEB1 gene and ZEB2 gene, respectively), quantitative PCR analysis was performed with the primer and TaqMan probe sets (TaqMan Gene Expression Assays) (manufactured by Applied Biosystems Company) shown in Table 1 below, and CFX96 Real-Time System (manufactured by Bio-Rad Laboratories, Inc).

[18] = system: PC3 cell lines; experiment: EMT-related gene mRNA expression, quantitative PCR; format: cell-based; conditions: 10 μM cloperastine, 24 hours, vs control group
Experimental: as §6, §7

With `CO[C@H]1C(=O)[C@]2(C)[C@@H](OC)C[C@H]3OC[C@@]3(OC(C)=O)[C@H]2[C@H](OC(=O)c2ccccc2)[C@]2(O)C[C@H](OC(=O)[C@H](O)[C@@H](NC(=O)OC(C)(C)C)c3ccccc3)C(C)=C1C2(C)C` [cabazitaxel] the “tumor volume vs control group” value ([1]; cabazitaxel 10 mg/kg single intraperitoneal dose, day 16, p<0.01) was “statistically significant difference between the cabazitaxel administration group and the control group”, the “tumor volume, cabazitaxel administration DU145CR mouse group vs cabazitaxel administration DU145 mouse group” value [2] was “about twice” and the “tumor volume vs control group” value ([3]; cabazitaxel 10 mg/kg single i.p., day 12, p>0.05) was “no statistically significant difference”. For the same molecule, the IC50 [4] was 11 nM, the IC50 [5] was 3.8 nM and the tumor volume ([6]; cabazitaxel 10 mg/kg single intraperitoneal dose) was “hardly enabled suppression of an increase in tumor volume”.
With `Clc1ccc([C@H](OCCN2CCCCC2)c2ccccc2)cc1` (racemic) [cloperastine, 1-{2-[(RS)-(4-chlorophenyl) (phenyl)methoxy]ethyl}piperidine] the “tumor volume vs control group” value ([1]; 12.5 mg/kg per day oral, daily) was “smaller than the tumor volume in the control group”, the “tumor volume decrease level vs cabazitaxel administration group” value ([1]; cloperastine 12.5 mg/kg per day oral vs cabazitaxel 10 mg/kg single i.p.) was “higher than the tumor volume decrease level in the cabazitaxel administration group” and the “number of living cells” value [7] was “significantly smaller number of living cells in a concentration-dependent manner”. For the same molecule, the “ratio of Ki67-positive cells” value [8] was “lower ratio of Ki67-positive cells”, the “ratio of Ki67-positive cells” value [9] was “lower ratio of Ki67-positive cells” and the “ratio of TUNEL-positive cells” value [10] was “higher ratio of TUNEL-positive cells”. For the same molecule, the “ratio of TUNEL-positive cells” value [11] was “higher ratio of TUNEL-positive cells”, the “impact on growth of normal cells” value [12] was “no impact on growth of normal cells” and the “number of living cells” value [13] was “significantly smaller number of living cells in a concentration-dependent manner”. The “number of living cells” value [14] was “significantly smaller number of living cells in a concentration-dependent manner”, the “tumor volume vs control group” value ([3]; cloperastine 12.5 mg/kg per day oral, day 12, p<0.001) was “statistically significant difference between the cloperastine administration group and the control group” and the invasion of cells [15] was “significantly suppressed”. For the same molecule, the tumor volume ([6]; 12.5 mg/kg per day oral, daily) was “considerably reduced the tumor volume”, the “number of living cells” value [16] was “significantly smaller number of living cells in a concentration-dependent manner” and the “expression levels of mRNA encoding vimentin, SNAI1, SNAI2, ZEB1, ZEB2” value [17] was “all lower”. For the same molecule, the “expression level of mRNA encoding E-cadherin” value ([18]; PC3 (FIG. 2B)) was “higher” and the “expression levels of mRNA encoding vimentin, SNAI1, SNAI2, ZEB1, ZEB2” value ([18]; PC3) was “all lower”.
